# Where two headings read alike, the source gives them in different places.
# How the values were obtained:
# [1] = test system: β2 -stimulation, lungs guinea pig; assay: Bronchospasmolytic effect (β2 -stimulation), Konzett-Rossler technique in anaesthetized guinea pig lungs; type: in vivo; settings: Cavia porcellus, doses as free base of the racemic compound
# in vivo = settings: mouse
# Source text: Furthermore the acute toxicity in mice after intraveneous and oral administration is given.
# [2] = test system: β1 -stimulation, heart rate mice; assay: Heart rate increasing effect (β1 -stimulation) in pentobarbital anaesthetized mice; type: in vivo; settings: Mus musculus, iv, dose giving an increase in heart rate of 100 beats/min, as free base
# Procedure: An especially valuable feature of the present invention is that typical and preferred representative of the compounds of the invention show a high bronchial selectivity (ratio of bronchospasmolytic activity to heart rate increasing effect) as compared to existing well-known broncholytics. […] The ratio, heart rate increasing dose ("ED 100") divided by bronchospasmolytic dose (ED 50), is a measure of the degree of selectivity of the bronchospasmolytic action. This ratio was calculated for a number of the compounds of the invention and for some of the most relevant compounds of reference.
# [3] = test system: β2 -stimulation versus β1 -stimulation; assay: Bronchial selectivity: heart rate increasing dose ("ED 100") divided by bronchospasmolytic dose (ED 50); type: in vivo; settings: heart rate ED 100 (mice, i.v.) / bronchospasmolytic ED 50 (guinea pig, i.v.)
# Procedure: The ratio, heart rate increasing dose ("ED 100") divided by bronchospasmolytic dose (ED 50), is a measure of the degree of selectivity of the bronchospasmolytic action. This ratio was calculated for a number of the compounds of the invention and for some of the most relevant compounds of reference.
# [4] = test system: β-stimulation of the skeletal muscles; assay: Tremor-inducing activity (β-stimulation of the skeletal muscles) compared to bronchospasmolytic activity in cats (Bowman and Nott); type: in vivo
# Procedure: For a few of the compounds of the invention, the tremor-inducing activity (β-stimulation of the skeletal muscles) was determined in cats (in accordance with the technique of Bowman, W. C. and Nott, M. W.: Actions of some sympathomimetic bronchodilator and beta-adrenoceptor blocking drugs on contractions of the cat soleus muscle, Brit. J. Pharmac., 1970, 38, 37-49) and compared to the bronchospasmolytic activity in the same species.
# [5] = iv, read-out: β2 -stimulation lungs guinea pig ED 50 i.v.
# [6] = i.d. = intraduodenally, read-out: β2 -stimulation lungs guinea pig ED 50 i.d.
Compound,"ED50 [1, 5] [mg/kg]",LD50 (in vivo; iv) [mg/kg],LD50 (in vivo; po) [mg/kg],"ED50 [1, 6] [mg/kg]",ED (increase of 100 beats/min) [2] [mg/kg],"Ratio ""ED 100""/ED 50 [3]","ratio between bronchospasmolytic dose and tremor-inducing dose, compared with salbutamol [4]"
"CC(C)(C)NCC(O)c1ccc(O)c(NC(=O)c2ccc(Cl)c(Cl)c2)c1.Cl (stereo not drawn) [3-(3,4-Dichlorobenzamido)-4-hydroxy-α-(tert.butylaminomethyl)benzylalcohol hydrochloride]",0.1,60,> 2000,–,–,–,–
"COc1ccc(CNc2cc(C(O)CNC(C)(C)C)ccc2O)cc1OC.Cl (stereo not drawn) [3-(3,4-Dimethoxybenzylamino)-4-hydroxy-α-(tert.butylaminomethyl)benzylalcohol hydrochloride]",0.01,20,> 2000,10,0.09,9,–
"CC(C)(C)NCC(O)c1ccc(O)c(NC(=O)c2cc(O)cc(O)c2)c1.Cl (stereo not drawn) [3-(3,5-Dihydroxybenzamido)-4-hydroxy-α-(tert.butylaminomethyl)-benzylalcohol hydrochloride]",0.3,20,> 2000,20,–,–,–
"COc1c(C)cc(CNc2cc(C(O)CNC(C)(C)C)ccc2O)cc1C.Cl (stereo not drawn) [3-(3,5-Dimethyl-4-methoxybenzylamino)-4-hydroxy-α-(tert.butylaminomethyl)benzylalcohol hydrochloride]",0.03,20,1500,3,0.3,10,–
COc1cc(CNc2cc(C(O)CNC(C)(C)C)ccc2O)ccc1O.Cl (stereo not drawn) [3-(3-Methoxy-4-hydroxybenzylamino)-4-hydroxy-α-(tert.butylaminomethyl)-benzylalcohol hydrochloride],0.02,10 to 30,> 2000,–,0.05,2.5,–
CC(C)(C)NCC(O)c1ccc(O)c(NC(=O)c2cccc([N+](=O)[O-])c2)c1.Cl (stereo not drawn) [3-(3-Nitrobenzamido)-4-hydroxy-α-(tert.butylaminomethyl)benzylalcohol hydrochloride],0.3,60,> 2000,–,–,–,–
CC(C)(C)NCC(O)c1ccc(O)c(NCc2cccc(O)c2)c1 (stereo not drawn) [3-(3-hydroxybenzylamino)-4-hydroxy-α-(tert.butylaminomethyl) benzylalcohol],0.01,20,≥ 2000,10,0.025,2.5,–
CC(C)(C)NCC(O)c1ccc(O)c(NC(=O)c2ccc(Cl)cc2)c1.Cl (stereo not drawn) [3-(4-Chlorobenzamido)-4-hydroxy-α-(tert.butylaminomethyl)benzylalcohol hydrochloride],0.5,60,> 2000,–,–,–,–
CN(C)c1ccc(CNc2cc(C(O)CNC(C)(C)C)ccc2O)cc1.Cl (stereo not drawn) [3-(4-Dimethylaminobenzylamino)-4-hydroxy-α-(tert.butylaminomethyl)benzylalcohol hydrochloride],0.02,20,700,–,≥ 0.1,≥ 5,–
CCOc1ccc(CNc2cc(C(O)CNC(C)(C)C)ccc2O)cc1.Cl (stereo not drawn) [3-(4-Ethoxybenzylamino)-4-hydroxy-α-(tert.butylaminomethyl)benzylalcohol hydrochloride],0.01,20,400,5,0.1,10,–
CC(C)(C)NCC(O)c1ccc(O)c(NCc2ccc(O)cc2)c1.Cl (stereo not drawn) [3-(4-Hydroxybenzylamino)-4-hydroxy-α-(tert.butylaminomethyl)benzylalcohol hydrochloride],0.01,20,> 2000,10,0.07,7,–
CC(C)Oc1ccc(CNc2cc(C(O)CNC(C)(C)C)ccc2O)cc1.Cl (stereo not drawn) [3-(4-Isopropoxybenzylamino)-4-hydroxy-α-(tert.butylaminomethyl)-benzylalcohol hydrochloride],0.03,20,400,–,0.1,3.3,–
Cc1ccc(CNc2cc(C(O)CNC(C)(C)C)ccc2O)cc1.Cl (stereo not drawn) [3-(4-Methylbenzylamino)-4-hydroxy-α-(tert.butylaminomethyl)benzylalcohol hydrochloride],0.07,20,700,–,–,–,–
CC(C)(C)NCC(O)c1ccc(O)c(NCc2ccc([N+](=O)[O-])cc2)c1.Cl (stereo not drawn) [3-(4-Nitrobenzylamino)-4-hydroxy-α-(tert.butylaminomethyl)-benzylalcohol hydrochloride],0.01,60,400,0.5,0.1,10,–
COc1ccc(C(=O)Nc2cc(C(O)CNC(C)(C)C)ccc2O)cc1.Cl (stereo not drawn) [3-(4-methoxybenzamido)-4-hydroxy-α-(tert.butylaminomethyl)benzylalcohol hydrochloride],0.1,80,> 2000,10,> 1,> 10,the same ratio between bronchospasmolytic dose and tremor-inducing dose as salbutamol
CC(C)(C)NCC(O)c1ccc(O)c(NC(=O)c2ccc([N+](=O)[O-])cc2)c1.Cl (stereo not drawn) [3-(4-nitrobenzamido)-4-hydroxy-α-(tert.butylaminomethyl)benzylalcohol hydrochloride],0.1,40,> 2000,10,> 1,> 10,–
COCCOc1ccc(CNc2cc(C(O)CNC(C)(C)C)ccc2O)cc1.Cl (stereo not drawn) [3-[4-(2-Methoxyethoxy)benzylamino]-4-hydroxy-α-(tert.butylaminomethyl)-benzylalcohol hydrochloride],0.01,20,> 1000,1,0.1,10,–
CC(C)(C)NCC(O)c1ccc(O)c(NCc2ccc(OCC(N)=O)cc2)c1 (stereo not drawn) [3-[4-(carbamoylmethoxy)benzylamino]-4-hydroxy-α-(tert.butylaminomethyl)benzylalcohol],0.01,20,> 1000,10,0.1,10,–
"CC(C)NCC(O)c1ccc(O)c(O)c1 (centres unmarked) [Isoprenaline, reference compound]",0.005,–,–,–,0.0003,–,–
"CC(C)NCC(O)c1cc(O)cc(O)c1 (centres unmarked) [Orciprenaline, reference compound]",0.1,–,–,–,0.01,–,–
"CC(C)(C)NCC(O)c1ccc(O)c(CO)c1 (centres unmarked) [Saloutamol, salbutamol, reference compound]",0.01,–,–,5,0.1,–,–
"CC(C)NCC(O)c1ccc(O)c(NS(C)(=O)=O)c1 (centres unmarked) [Soterenol, reference compound]",0.02,60,750,–,0.04,2,–
"CC(C)(C)NCC(O)c1cc(O)cc(O)c1 (centres unmarked) [Terbutaline, reference compound]",0.03,40,> 2000,10,0.3,10,–
